The term MIC denotes the lowest concentration that inhibits growth of the organism. A higher MIC goes with a need for much substance.

In brackets after ≈: the same amount, converted by molar mass. Non-standard residues stand in square brackets, D forms with d. Residues, ends and D or L forms follow the SMILES beside them. No end group written: not given here. Dopa = N[C@@H](Cc1ccc(O)c(O)c1)C(=O)O

The subject of one test is E. coli. Nature of the test: Antimicrobial activity of the coated surface (modified ISO 22196 / colony counting assay). The class given is cell-based, Escherichia coli. Conditions: coated on polystyrene at 25, 50 and 100 μM, E. coli cultured 24 hours. How it is done:
In order to confirm the antimicrobial activity in the state where the antimicrobial peptides are coated, the experiment was carried out by an ISO 22196 method in which some steps were changed. Based on the results of Experimental Example 2-1 above, the experiment on the antimicrobial activity was carried out by only using the NKCs to which 3, 5, and 7 DOPA moieties were conjugated (i.e., NKC-L-O3, NKC-L-O5, NKC-L-O7, respectively). Each of NKC-L-O3, NKC-L-O5, and NKC-L-O7 was coated on a polystyrene surface at different concentrations of 25 μM, 50 μM, and 100 μM, and then E. coli in logarithmic phase (10^6 cell/mL) was cultured on the coated surface for 24 hours. After the culture, the culture medium was diluted to a certain concentration and smeared on a plate, and the CFU values were confirmed after 16 hours. The E. coli death level, calculated by comparing the above CFU values with CFU values of the uncoated surface, is represented using the following equation.
Antimicrobial Activity=(1−CFU of Surface of Sample/CFU of Control)×100
In order to measure the antimicrobial activity of NKC-L-O5 (100 μM) according to coating time, a colony counting assay was carried out. […] The plate was cultured at 37° C. for 16 hours, and then the colonies were counted.
For `CC[C@H](C)[C@H](NC(=O)CNC(=O)[C@H](CCCCN)NC(=O)[C@H](CCCCN)NC(=O)[C@H](CCC(N)=O)NC(=O)[C@H](CC(C)C)NC(=O)[C@H](CCCCN)NC(=O)[C@H](CC(C)C)NC(=O)[C@H](CC(C)C)NC(=O)[C@H](CCCCN)NC(=O)[C@H](CCCCN)NC(=O)[C@H](CC(C)C)NC(=O)[C@H](CC(C)C)NC(=O)[C@H](CCCCN)NC(=O)[C@H](CCSC)NC(=O)[C@H](C)NC(=O)[C@H](CCCCN)NC(=O)[C@@H]1CCCN1C(=O)[C@H](C)N)C(=O)NCC(=O)NCC(=O)NCC(=O)NCC(=O)N[C@@H](CO)C(=O)NCC(=O)NCC(=O)NCC(=O)NCC(=O)N[C@@H](CO)C(=O)N[C@@H](Cc1ccc(O)c(O)c1)C(=O)N[C@@H](Cc1ccc(O)c(O)c1)C(=O)N[C@@H](Cc1ccc(O)c(O)c1)C(=O)O` [NKC-(G4S)2-DOPA3] (H-APKAMKLLKKLLKLQKKGIGGGGSGGGGS[Dopa][Dopa][Dopa]-OH; N-terminus and C-terminus assumed), the “antimicrobial activity in coated state, dependence” value was “antimicrobial activity dependent on the number of DOPA moieties and the concentration of the NKC”.

The test system of the next test is E. coli.
Test: not given
The class given is cell-based, Escherichia coli. Conditions: 18 h. How it is done:
In order to confirm the antimicrobial activity of the adhesive antimicrobial peptides prepared in Experimental Example 1-1, the minimal inhibitory concentration (MIC) which inhibits the growth of E. coli was identified by using a method disclosed in Nature Protocols. 2008; 3(2):163-175. Briefly, a culture medium in which a single colony had been grown for 16 hours was subcultured and grown until OD600 reached 0.4 to 0.6, which corresponds to logarithmic growth. Thereafter, the number of cells was calculated according to the OD values, and the number of cells was set at 10^6 cell/mL. When a Mueller-Hinton Broth (MHB) was loaded to a polypropylene 96-well plate, 90 μL was added to the first row of the plate and 100 μL was added to the control wells, and 50 μL was added to the remaining wells. Thereafter, the peptide solution was prepared at a concentration of […], and 10 μL thereof was added to each well of the first row. The peptide solution was mixed with the medium using a multi-pipette, and then 50 μL was transferred to the second row (B). At this time, the peptide was diluted to half concentration, and the peptide was transferred up to the seventh row by the same method so that the peptide (64 μM to 1 μM) was dissolved in the medium. 10^6 cell/mL of Escherichia coli, which had been prepared previously, was added thereto, and then the plate was cultured for 18 hours. Thus, the final concentration range of the peptide used in the experiment became 32 μM to 0.5 μM. After culturing for 18 hours, the OD values were measured using a microplate reader (Tecan i-control 200 pro), and the MIC values were identified.
Regarding `CC[C@H](C)[C@H](NC(=O)CNC(=O)[C@H](CCCCN)NC(=O)[C@H](CCCCN)NC(=O)[C@H](CCC(N)=O)NC(=O)[C@H](CC(C)C)NC(=O)[C@H](CCCCN)NC(=O)[C@H](CC(C)C)NC(=O)[C@H](CC(C)C)NC(=O)[C@H](CCCCN)NC(=O)[C@H](CCCCN)NC(=O)[C@H](CC(C)C)NC(=O)[C@H](CC(C)C)NC(=O)[C@H](CCCCN)NC(=O)[C@H](CCSC)NC(=O)[C@H](C)NC(=O)[C@H](CCCCN)NC(=O)[C@@H]1CCCN1C(=O)[C@H](C)N)C(=O)NCC(=O)NCC(=O)NCC(=O)NCC(=O)N[C@@H](CO)C(=O)NCC(=O)NCC(=O)NCC(=O)NCC(=O)N[C@@H](CO)C(=O)N[C@@H](Cc1ccc(O)c(O)c1)C(=O)O` [NKC-(G4S)2-DOPA1] (HELM PEPTIDE1{A.P.K.A.M.K.L.L.K.K.L.L.K.L.Q.K.K.G.I.G.G.G.G.S.G.G.G.G.S.[O=C(O)[C@H](Cc1ccc(O)c(O)c1)N[*:1]]}$$$$V2.0; N-terminus and C-terminus assumed), the MIC was 8 µM (≈ 23.7 µg/mL). That is a single-digit micromolar value.
Molecule `CC[C@H](C)[C@H](NC(=O)CNC(=O)[C@H](CCCCN)NC(=O)[C@H](CCCCN)NC(=O)[C@H](CCC(N)=O)NC(=O)[C@H](CC(C)C)NC(=O)[C@H](CCCCN)NC(=O)[C@H](CC(C)C)NC(=O)[C@H](CC(C)C)NC(=O)[C@H](CCCCN)NC(=O)[C@H](CCCCN)NC(=O)[C@H](CC(C)C)NC(=O)[C@H](CC(C)C)NC(=O)[C@H](CCCCN)NC(=O)[C@H](CCSC)NC(=O)[C@H](C)NC(=O)[C@H](CCCCN)NC(=O)[C@@H]1CCCN1C(=O)[C@H](C)N)C(=O)NCC(=O)NCC(=O)NCC(=O)NCC(=O)N[C@@H](CO)C(=O)NCC(=O)NCC(=O)NCC(=O)NCC(=O)N[C@@H](CO)C(=O)N[C@@H](Cc1ccc(O)c(O)c1)C(=O)N[C@@H](Cc1ccc(O)c(O)c1)C(=O)N[C@@H](Cc1ccc(O)c(O)c1)C(=O)O` [NKC-(G4S)2-DOPA3] (H-APKAMKLLKKLLKLQKKGIGGGGSGGGGS[Dopa][Dopa][Dopa]-OH; N-terminus and C-terminus assumed) came in with an MIC of 8 µM (≈ 26.5 µg/mL).
Same read-out and setting: to `CC[C@H](C)[C@H](NC(=O)CNC(=O)[C@H](CCCCN)NC(=O)[C@H](CCCCN)NC(=O)[C@H](CCC(N)=O)NC(=O)[C@H](CC(C)C)NC(=O)[C@H](CCCCN)NC(=O)[C@H](CC(C)C)NC(=O)[C@H](CC(C)C)NC(=O)[C@H](CCCCN)NC(=O)[C@H](CCCCN)NC(=O)[C@H](CC(C)C)NC(=O)[C@H](CC(C)C)NC(=O)[C@H](CCCCN)NC(=O)[C@H](CCSC)NC(=O)[C@H](C)NC(=O)[C@H](CCCCN)NC(=O)[C@@H]1CCCN1C(=O)[C@H](C)N)C(=O)NCC(=O)NCC(=O)NCC(=O)NCC(=O)N[C@@H](CO)C(=O)NCC(=O)NCC(=O)NCC(=O)NCC(=O)N[C@@H](CO)C(=O)N[C@@H](Cc1ccc(O)c(O)c1)C(=O)N[C@@H](Cc1ccc(O)c(O)c1)C(=O)N[C@@H](Cc1ccc(O)c(O)c1)C(=O)N[C@@H](Cc1ccc(O)c(O)c1)C(=O)N[C@@H](Cc1ccc(O)c(O)c1)C(=O)O` [NKC-(G4S)2-DOPA5] (H-APKAMKLLKKLLKLQKKGIGGGGSGGGGS[Dopa][Dopa][Dopa][Dopa][Dopa]-OH) belongs 8 µM (≈ 29.4 µg/mL); to `CC[C@H](C)[C@H](NC(=O)CNC(=O)[C@H](CCCCN)NC(=O)[C@H](CCCCN)NC(=O)[C@H](CCC(N)=O)NC(=O)[C@H](CC(C)C)NC(=O)[C@H](CCCCN)NC(=O)[C@H](CC(C)C)NC(=O)[C@H](CC(C)C)NC(=O)[C@H](CCCCN)NC(=O)[C@H](CCCCN)NC(=O)[C@H](CC(C)C)NC(=O)[C@H](CC(C)C)NC(=O)[C@H](CCCCN)NC(=O)[C@H](CCSC)NC(=O)[C@H](C)NC(=O)[C@H](CCCCN)NC(=O)[C@@H]1CCCN1C(=O)[C@H](C)N)C(=O)NCC(=O)NCC(=O)NCC(=O)NCC(=O)N[C@@H](CO)C(=O)NCC(=O)NCC(=O)NCC(=O)NCC(=O)N[C@@H](CO)C(=O)N[C@@H](Cc1ccc(O)c(O)c1)C(=O)N[C@@H](Cc1ccc(O)c(O)c1)C(=O)N[C@@H](Cc1ccc(O)c(O)c1)C(=O)N[C@@H](Cc1ccc(O)c(O)c1)C(=O)N[C@@H](Cc1ccc(O)c(O)c1)C(=O)N[C@@H](Cc1ccc(O)c(O)c1)C(=O)N[C@@H](Cc1ccc(O)c(O)c1)C(=O)O` [NKC-(G4S)2-DOPA7] (H-APKAMKLLKKLLKLQKKGIGGGGSGGGGS[Dopa][Dopa][Dopa][Dopa][Dopa][Dopa][Dopa]-OH; N-terminus and C-terminus assumed), 16 µM (≈ 64.6 µg/mL).
Same read-out and setting: under APKAMKLLKKLLKLQKKGI [NKC] stands 1 µM.

For the origin of these results see patent publication US20190224278A1, “PRODUCING METHOD OF ANTIMICROBIAL PEPTIDE WITH ENHANCED ADHESION AND USES THEREOF” (Intelligent Synthetic Biology Center, priority 2018, published 2019).
